We go through 13 molecules from patent US20080207634A1, “Chemical Compounds” (priority 2004, published 2008).

For data set [1], the system named is T-tropic HIV. The following applies: patients that are dual tropic or with only the T-tropic form of the virus; cited from earlier work.
The target of data set [2] is T1, human CXCR4 (Homo sapiens, UniProt P61073).
T1 construct: expressed in transfected cells; host or cells: HEK-293 cells (stably expressing human macrophage scavenging receptor) transduced with human CXCR4 BacMam and Gqi5 BacMam
T1 sequence (P61073 whole entry): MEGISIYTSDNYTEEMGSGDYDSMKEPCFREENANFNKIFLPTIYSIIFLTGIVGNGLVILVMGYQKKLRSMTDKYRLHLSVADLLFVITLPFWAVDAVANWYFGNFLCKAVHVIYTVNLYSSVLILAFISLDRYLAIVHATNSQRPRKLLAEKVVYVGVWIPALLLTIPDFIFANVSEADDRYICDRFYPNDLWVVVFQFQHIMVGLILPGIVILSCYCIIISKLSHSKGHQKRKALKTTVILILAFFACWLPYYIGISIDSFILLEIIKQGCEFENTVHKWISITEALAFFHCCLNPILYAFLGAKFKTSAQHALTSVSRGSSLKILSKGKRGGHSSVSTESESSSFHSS
In words: Functional FLIPR assay (block of SDF-1 alpha induced [Ca2+]i change). Type of data set: cell-based. The conditions noted are these: HEK-293 cells with human CXCR4 BacMam and Gqi5 BacMam; antagonism of SDF-1 alpha; read-out: Functional assay (pIC50) (converted). The method, then: Human embryonic kidney (HEK-293) cells were maintained and harvested as described above. Cells were plated in 96-well, black clear bottom, poly-lysine coated plates at a concentration of 40,000 cells per well in a final volume of 100 ul containing human CXCR4BacMam (MOI=25) and Gqi5 BacMam (MOI=12.5). The cells were incubated at 37° C., 5% CO2, 95% humidity for 24 h to allow for protein expression.
After the required incubation time the cells were washed once with 50 ul of fresh serum-free DMEM/F12 media containing probenicid. 50 ul of dye solution was then added to the cells (Calcium Plus Assay Kit Dye; Molecular Devices) was dissolved in 200 ml of the above probenicid/BSA containing media and incubated for 1 h. Cell plates were transferred to a Fluorometric Imaging Plate Reader (FLIPR). Upon addition the effect of the compounds on the change in [Ca^2+]i was examined to determine if the compounds were agonists or antagonists (ability to block SDF-1 alpha activity) at the CXCR4 receptor. IC50 values are determined and pKb values are calculated using the Leff and Dougall equation: KB═IC50/((2+([agonist]/EC50̂b) ̂1/b−1) Where IC50 is that defined by the antagonist concentration-response curve [agonist] is the EC80 concentration of agonist used EC50 is that defined by the agonist concentration-response curve b is the slope of the agonist concentration-response curve.

Data set [3] in a line: Cell/cell fusion assay (luciferase). The conditions noted are these: Homo sapiens, HEK293; 24 h incubation, luciferase readout; read-out: Fusion assay (pIC50) (converted). Type of data set: cell-based. The text has this:
The complete coding sequences of HIV-1 tat (GenBank Accession No. X07861) and rev (GenBank Accession No. M34378) were cloned into pcDNA3.1 expression vectors containing G418 and hygromycin resistance genes, respectively. The complete coding sequence of the HIV-1 (HXB2 strain) gp160 envelope gene (nucleotide bases 6225-8795 of GenBank Accession No. K03455) was cloned into plasmid pCRII-TOPO. The three HIV genes were additionally inserted into the baculovirus shuttle vector, pFastBacMam1, under the transcriptional control of the CMV promoter. A construction of the pHIV—I LTR containing mutated NFkB sequences linked to the luciferase reporter gene was prepared by digesting pcDNA3.1, containing the G418 resistance gene, with Nru I and Bam HI to remove the CMV promoter. LTR-luc was then cloned into the Nru I/Bam HI sites of the plasmid vector. Plasmid preparations were performed after the plasmids were amplified in Escherichia coli strain DH5-alpha. The fidelity of the inserted sequences was confirmed by double-strand nucleotide sequencing using an ABI Prism Model 377 automated sequencer.
Recombinant BacMam baculoviruses were constructed from pFastBacMam shuttle plasmids by using the bacterial cell-based Bac-to-Bac system. Viruses were propagated in Sf9 (Spodoptera frugiperda) cells cultured in Hink's TNM-FH Insect media supplemented with 10% (v/v) fetal bovine serum and 0.1% (v/v) pluronic F-68 according to established protocols.
Human osteosarcoma (HOS) cells that naturally express human CXCR4 were transfected with human CCR5, human CD4 and the pHIV-LTR-luciferase plasmid using FuGENE 6 transfection reagent. Single cells were isolated and grown under selection condition in order to generate a stable HOS (hCXCR4/hCCR5/hCD4/pHIV-LTR-luciferase) clonal cell line. The cells were maintained in Dulbeccos modified Eagles media supplemented with 10% fetal calf serum (FCS), G418 (400 ug/ml), puromycin (1 ug/ml), mycophenolic acid (40 ug/ml), xanthine (250 ug/ml) and hypoxanthine (13.5 ug/ml) to maintain a selection pressure for cells expressing the LTR-luciferase, hCCR5 and hCD4, respectively. Human embryonic kidney (HEK-293) cells stably transfected to express the human macrophage scavenging receptor (Class A, type 1; GenBank Accession No. D90187), were maintained in DMEM/F-12 media (1:1) supplemented with 10% FCS and 1.5 ug/ml puromycin. The expression of this receptor by the HEK-293 cells enhances their ability to stick to tissue culture treated plasticware.
HEK-293 cells were harvested using enzyme-free cell dissociation buffer. The cells were resuspended in DMEM/F-12 media supplemented with 10% FCS and 1.5 ug/ml and counted. […]
Following the 24 h incubation, total cellular luciferase activity was measured using the LucLite Plus assay kit (Packard, Meridien, Conn.). […]

Data set [4] in a line: Compound cytotoxicity in the absence of virus (CellTiter-Glo). Type of data set: cell-based. The conditions noted are these: human; HOS cells, no virus; read-out: Cytotox (pIC50) (converted). The method, then:
(§1) Compounds were profiled against two HIV-1 viruses, the M-tropic (CCR5 utilizing) Ba-L strain and the T-tropic (CXCR4 utilizing) IIIB strain. Both viruses were propagated in human peripheral blood lymphocytes. Compounds were tested for there ability to block infection of the HOS cell line (expressing hCXCR4/hCCR5/hCD4/pHIV-LTR-luciferase) by either HIV-1 Ba-L or HIV-1 IIIB. Compound cytotoxicity was also examined in the absence of virus addition.
(§2) HOS cells (expressing hCXCR4/hCCR5/hCD4/pHIV-LTR-luciferase) were harvested and diluted in Dulbeccos modified Eagles media supplemented with 2% FCS and non-essential amino acid to a concentration of 60,000 cells/ml. The cells were plated into 96-well plates (100 ul per well) and the plates were placed in a tissue culture incubator (37° C.; 5% CO2/95% air) for a period of 24 h.
(§3) Subsequently, 50 ul of the desired drug solution (4 times the final concentration) was added to each well and the plates were returned to the tissue culture incubator (37° C.; 5% CO2/95% air) for 1 h. Following this incubation 50 ul of diluted virus was added to each well (approximately 2 million RLU per well of virus). The plates were returned to the tissue culture incubator (37° C.; 5% CO2/95% air) and were incubated for a further 96 h.
(§4) Following this incubation the endpoint for the virally infected cultures was quantified following addition of Steady-Glo Luciferase assay system reagent (Promega, Madison, Wis.). Cell viability or non-infected cultures was measured using a CellTiter-Glo luminescent cell viability assay system (Promega, Madison, Wis.). All luminescent readouts are performed on a Topcount luminescence detector (Packard, Meridien, Conn.).
(In general: Cellular ATP, detected with luciferase, serves as a proxy for viable cell number.)

Data set [5] concerns HIV-1 IIIB (T-tropic, CXCR4 utilizing). In words: HOS HIV-1 infectivity assay, IIIB strain. Format: cell-based. The following applies: Human immunodeficiency virus 1; HOS cells infected with HIV-1 IIIB, 96 h, luciferase; read-out: HOS (3B). Here is the method: as §1, §2, §3, §4
Data set [6] deals with HIV. The data set is described as follows: HOS HIV anti-infectivity assay (strain not stated). The following applies: Human immunodeficiency virus 1, activity level class, read-out: Antiviral acitivity. Type of data set: cell-based. Here is the method: as §1, §2, §3, §4

With `c1cc(CN2CCCNCCNCCCNCC2)ccc1CN1CCCNCCNCCCNCC1` [AMD-3100], the “T-tropic HIV viral load” value in data set [1] is “significantly reduce T-tropic HIV viral load”.
As to `CN(Cc1cn2c(F)cccc2n1)C1CCOc2cccnc21` (stereo not shown) [Example 2, N-[(5-Fluoroimidazo[1,2-a]pyridin-2-yl)methyl]-N-methyl-3,4-dihydro-2H-pyrano[3,2-b]pyridin-4-amine], the IC50 was above 10000 nM in data set [2], above 10000 nM in data set [3] and above 20000 nM in data set [5]. Also, the IC50 at 97 h in data set [4] was above 10000 nM.
Consider `CN1CCN(c2cccc3nc(CN(C)C4CCOc5cccnc54)cn23)CC1` (stereo not shown) [Example 3, N-Methyl-N-{[5-(4-methyl-1-piperazinyl)imidazo[1,2-a]pyridin-2-yl]methyl}-3,4-dihydro-2H-pyrano[3,2-b]pyridin-4-amine], for which the IC50 in data set [2] was 6.92 nM; in data set [3], 2.63 nM; in data set [5], 17 nM; in data set [6] it was below 100 nM. Further, the IC50 at 97 h in data set [4] was above 10000 nM.
`CN(Cc1cn2c(N3CCNCC3)cccc2n1)C1CCOc2cccnc21` (stereo not shown) [Example 4, N-Methyl-N-{[5-(1-piperazinyl)imidazo[1,2-a]pyridin-2-yl]methyl}-3,4-dihydro-2H-pyrano[3,2-b]pyridin-4-amine]: the IC50 in data set [2] is 25.1 nM; in data set [3], 26.9 nM; in data set [5], 34 nM; in data set [6] it was below 100 nM. The IC50 at 97 h in data set [4] was above 10000 nM.
The like results for `CN(C)CCN(C)c1cccc2nc(CN(C)C3CCOc4cccnc43)cn12` (stereo not shown) [Example 5] were, in that order, 69.2 nM, 61.7 nM, 61 nM, below 100 nM and above 10000 nM.
Turning to `CN(Cc1cn2c(N3CCNC(=O)C3)cccc2n1)[C@H]1CCOc2cccnc21` [Example 7, 4-(2-{[(4S)-3,4-Dihydro-2H-pyrano[3,2-b]pyridin-4-yl(methyl)amino]methyl}imidazo[1,2-a]pyridin-5-yl)-2-piperazinone], the IC50 in data set [6] was in the range of 500 to 10000 nM.
Still for that read-out and setting: the result for `CC(C)N1CCN(c2cccc3nc(CN(C)[C@H]4CCOc5cccnc54)cn23)CC1` [Example 8, (4S)—N-Methyl-N-({5-[4-(1-methylethyl)-1-piperazinyl]imidazo[1,2-a]pyridin-2-yl}methyl)-3,4-dihydro-2H-pyrano[3,2-b]pyridin-4-amine] reads below 100 nM.
With `CN(C)C1CCN(c2cccc3nc(CN(C)[C@H]4CCOc5cccnc54)cn23)C1` (stereo partly drawn) [Example 9, (4S)—N-({5-[3-(Dimethylamino)-1-pyrrolidinyl]imidazo[1,2-a]pyridin-2-yl}methyl)-N-methyl-3,4-dihydro-2H-pyrano[3,2-b]pyridin-4-amine], the IC50 in data set [6] is below 100 nM.
Same read-out and setting: then `CN(Cc1cn2c(N3CCC(N)CC3)cccc2n1)[C@H]1CCOc2cccnc21` [Example 10, (4S)—N-{[5-(4-Amino-1-piperidinyl)imidazo[1,2-a]pyridin-2-yl]methyl}-N-methyl-3,4-dihydro-2H-pyrano[3,2-b]pyridin-4-amine], with below 100 nM.
Regarding `CN(Cc1cn2c(N3CCC(N)C3)cccc2n1)[C@H]1CCOc2cccnc21` (stereo partly drawn) [Example 11, (4S)—N-{[5-(3-Amino-1-pyrrolidinyl)imidazo[1,2-a]pyridin-2-yl]methyl}-N-methyl-3,4-dihydro-2H-pyrano[3,2-b]pyridin-4-amine], the IC50 in data set [6] is below 100 nM.
The same measure, in the same setting: the result for `CN1CCC(N(C)c2cccc3nc(CN(C)C4CCOc5cccnc54)cn23)C1` (stereo not shown) [Example 12, N-Methyl-N-({5-[methyl(1-methyl-3-pyrrolidinyl)amino]imidazo[1,2-a]pyridin-2-yl}methyl)-3,4-dihydro-2H-pyrano[3,2-b]pyridin-4-amine] reads below 100 nM; that for `CN1CCN(c2cccc3nc(CN(C)[C@H]4CCOc5cccnc54)cn23)CC1` [Example 13, (4S)—N-Methyl-N-{[5-(4-methyl-1-piperazinyl)imidazo[1,2-a]pyridin-2-yl]methyl}-3,4-dihydro-2H-pyrano[3,2-b]pyridin-4-amine], below 100 nM.
Take `CN1CCN(c2cccc3nc(CN(C)C4CCOc5cccnc54)c(CO)n23)CC1` (stereo not shown) [Example 14, [2-{[3,4-dihydro-2H-pyrano[3,2-b]pyridin-4-yl(methyl)amino]methyl}-5-(4-methyl-1-piperazinyl)imidazo[1,2-a]pyridin-3-yl]methanol]: the IC50 in data set [6] was below 100 nM.
